# Test system: Influenza A virus
# Assay: Antiviral activity against Influenza A virus (A/WSN/1933(H1N1)) infected in MDCK cells expressing neuraminidase H275Y mutant assessed as protection against virus-induced cytopathic effect after 48 hrs by CellTiter96 aqueous non-radioactive cell proliferation assay
# Type: functional, organism-based
row,Compound,EC50 [nM]
1,CCC(CC)O[C@@H]1C=C(C(=O)O)C[C@H](N/C(N)=N/C(=O)[C@@H](C)c2ccc3cc(OC)ccc3c2)[C@H]1NC(C)=O,19000
2,CCCCCCCC(=O)/N=C(\N)N[C@H]1C=C(C(=O)O)O[C@@H]([C@H](O)[C@H](O)CO)[C@@H]1NC(C)=O,480
3,CCC(CC)O[C@@H]1C=C(C(=O)O)C[C@H](NC(=N)N)[C@H]1NC(C)=O,2100
4,CCC(CC)O[C@@H]1C=C(C(=O)O)C[C@H](N)[C@H]1NC(C)=O [OSELTAMIVIR CARBOXYLATE],26000
5,CCCCCCCC(=O)/N=C(\N)N[C@H]1CC(C(=O)O)=C[C@@H](OC(CC)CC)[C@@H]1NC(C)=O,6600
6,CC(=O)N[C@H]1[C@H]([C@H](O)[C@H](O)CO)OC(C(=O)O)=C[C@@H]1NC(=N)N [ZANAMIVIR],150
7,COc1ccc2cc([C@H](C)C(=O)/N=C(\N)N[C@H]3C=C(C(=O)O)O[C@@H]([C@H](O)[C@H](O)CO)[C@@H]3NC(C)=O)ccc2c1,900

# From ChEMBL document CHEMBL4152278 (Eur J Med Chem, 2018)
